Non-standard residues stand in square brackets, D forms with d. Residues, ends and D or L forms follow the SMILES beside them. *: point of attachment. d(aIle) = CC[C@H](C)[C@@H](N)C(=O)O; dAllylGly = C=CC[C@@H](N)C(=O)O; AllylGly = C=CC[C@H](N)C(=O)O; dDab = NCC[C@@H](N)C(=O)O; Octanoyl = CCCCCCCC(=O)*; Dab = NCC[C@H](N)C(=O)O
Experiments:
[1] = system: Escherichia coli NCTC 12241; assay type: cell-based; details: NCTC 12241, 18 h
Procedure: (§1) [formula] Scheme 1 Synthesis of novel cyclic analogues of TriA1. MIC = minimum inhibitory concentration. Determined by microbroth dilutions assays and experiments run in duplicate. Values are shown to two significant figures and reported in μg mL^–1. ^a Strain NCTC 12241. ^b Strain NCTC 10788. ^c Strain NCTC 9633. ^d Strain NCTC 13304. ^e Strain NCTC 5920. […]
(§2) VIII. Antimicrobial testing
(§3) All minimum inhibitory concentrations (MICs) were determined according to Clinical and Standards Laboratory Institute (CLSI) guidelines.5 Briefly, peptides were dissolved in Muller-Hinton Broth (MHB) and serial dilutions made across a 96 well plate. Each well was inoculated with a suspension of the required bacterial strain to reach a final inoculum of 5 x 10^5 colony forming units per mL. The MIC was taken as the lowest concentration with no visible growth after 18 hours. […]

[2] = system: Staphylococcus aureus NCTC 10788; assay type: cell-based; details: NCTC 10788, 18 h
Procedure: as §1, §2, §3

[3] = system: bacterial indicator strains; test: Antimicrobial activity, strain not named in the sentence (microbroth dilution); assay type: cell-based; details: highest concentration tested 50 μg mL^–1
Procedure: as §1, §2, §3

[4] = assay type: physicochemical; details: pH 7.4
Procedure: The D-stereoselective peptidase TriF is a membrane associated protein found in Paenibacillus polymyxa CICC 10580.[7] TriFpep, the soluble periplasmic peptidase domain of TriF, which lacks the signal peptide and four hydrophobic transmembrane helices, was expressed in E. coli BL21 cells as a C-terminal His6-tag protein construct.[7] TriA1 analogues 1–9 were incubated with TriFpep at 37 °C for 12 h and the reaction mixtures analysed by UPLC-MS. […] We were unable to test the stability of Oct-cTriA1(biphenyl) (9) as it is insoluble in the TriF assay mixture. […] These analogues therefore represent a new scaffold of macrocyclic peptides with selective activity against Gram-negative bacteria. […]
All minimum inhibitory concentrations (MICs) were determined according to Clinical and Standards Laboratory Institute (CLSI) guidelines.5 Briefly, peptides were dissolved in Muller-Hinton Broth (MHB) and serial dilutions made across a 96 well plate. […]
TriFpep was expressed and purified as previously described.3 An assay mixture (total volume 30 μL in 25% phosphate-buffered saline (PBS) buffer, pH 7.4) containing TriFpep (2.0 μM) and the desired peptide (added as a DMSO solution to give a final concentration of 20 μM) was prepared and incubated for 12 h at 37 °C. […] The samples were centrifuged at 15,000 rpm for 10 min and 2 μL of the supernatant was analyzed by UPLC–MS system as previously described.3

Compound	MIC E. coli [1] [μg mL^–1]	MIC S. aureus [2] [μg mL^–1]	antimicrobial activity (MIC bound, strain not named) [3] [μg mL^–1]	solubility in the TriF assay mixture [4]
CCCCCCCC(=O)N[C@@H](C(=O)N[C@H](CCN)C(=O)NCC(=O)N[C@H](CO)C(=O)N[C@H](Cc1c[nH]c2ccccc12)C(=O)N[C@@H](CO)C(=O)N[C@@H](CCN)C(=O)N[C@H](CCN)C(=O)N[C@@H](Cc1ccccc1)C(=O)N[C@@H](CCC(=O)O)C(=O)N[C@H](C(=O)N[C@@H](C(=O)N[C@@H](C)C(=O)O)[C@@H](C)CC)C(C)C)C(C)C [Peptide 1, Oct-TriA1]	0.39	25	–	–
C=CCSC[C@H](NC(=O)[C@@H](CCN)NC(=O)[C@H](CCN)NC(=O)[C@H](CO)NC(=O)[C@@H](CSCC=C)NC(=O)[C@@H](CO)NC(=O)CNC(=O)[C@@H](CCN)NC(=O)[C@H](NC(=O)CCCCCCC)C(C)C)C(=O)N[C@@H](CCC(=O)O)C(=O)N[C@H](C(=O)N[C@@H](C(=O)N[C@@H](C)C(=O)O)[C@@H](C)CC)C(C)C [Peptide 3, Oct-TriA1-(5-D-Sac, 9-Sac)]	>50	>50	–	–
CCCCCCCC(=O)N[C@@H](C(=O)N[C@H](CCN)C(=O)NCC(=O)N[C@H](CO)C(=O)N[C@@H]1CSCc2ccc(cc2)-c2ccc(cc2)CSC[C@@H](C(=O)N[C@@H](CCC(=O)O)C(=O)N[C@H](C(=O)N[C@@H](C(=O)N[C@@H](C)C(=O)O)[C@@H](C)CC)C(C)C)NC(=O)[C@@H](CCN)NC(=O)[C@H](CCN)NC(=O)[C@H](CO)NC1=O)C(C)C [Peptide 9, Oct-cTriA1 (biphenyl)]	–	–	> 50	insoluble

Continued, in another order:

MIC E. coli [1] [μg mL^–1]	MIC S. aureus [2] [μg mL^–1]	Compound	antimicrobial activity (MIC bound, strain not named) [3] [μg mL^–1]	solubility in the TriF assay mixture [4]
>50	>50	C=CC[C@H](NC(=O)[C@@H](CCN)NC(=O)[C@H](CCN)NC(=O)[C@H](CO)NC(=O)[C@@H](CC=C)NC(=O)[C@@H](CO)NC(=O)CNC(=O)[C@@H](CCN)NC(=O)[C@H](NC(=O)CCCCCCC)C(C)C)C(=O)N[C@@H](CCC(=O)O)C(=O)N[C@H](C(=O)N[C@@H](C(=O)N[C@@H](C)C(=O)O)[C@@H](C)CC)C(C)C [Peptide 2, Oct-TriA1-(5-D-Agl, 9-Agl)] (Octanoyl-[dV][dDab]G[dS][dAllylGly]S[Dab][dDab][AllylGly]EV[d(aIle)]A-OH)	–	–
>50	>50	CCCCCCCC(=O)N[C@@H](C(=O)N[C@H](CCN)C(=O)NCC(=O)N[C@H](CO)C(=O)N[C@H](CS)C(=O)N[C@@H](CO)C(=O)N[C@@H](CCN)C(=O)N[C@H](CCN)C(=O)N[C@@H](CS)C(=O)N[C@@H](CCC(=O)O)C(=O)N[C@H](C(=O)N[C@@H](C(=O)N[C@@H](C)C(=O)O)[C@@H](C)CC)C(C)C)C(C)C [Peptide 4, Oct-TriA1-(5-D-Cys, 9-Cys)]	–	–
